In brackets after ≈: the same amount, converted by molar mass. Where two headings read alike, the source gives them in different places. Marks after values point to notes of the source that are not given here. Blank lines part the entries; values can stand above or below the compound they belong to.
How the values were obtained:
P. gingivalis W50 = experiment: Susceptibility of P. gingivalis to Frd inhibiting agents: growth in liquid culture, OD 620 nm over 50 h; type: cell-based, Porphyromonas gingivalis
Procedure: (§1) The effect of Frd inhibiting agents on P. gingivalis was carried out in liquid cultures. Briefly W50 was cultured in 200 mL BHI medium until OD of 0.6 (˜2.9×10^8 cfu/mL). The cells were then resuspended in fresh growth medium to a final concentration of 2.5×10^7 cfu/mL. Oxantel pamonate, morantel citrate and thiabendazole (Sigma) were dissolved in DMSO to achieve stock concentrations of 250 mM. 4 μL of the test solution was then mixed with 196 μL of cell suspension and transferred into 96 well flat bottom plates followed by incubation at 37° C. under anaerobic conditions and monitored hourly over a 50 h period by measuring the optical density of the culture at 620 nm using an iEMS microplate reader (Labsystems OY Research Technologies Division). Mean generation times of P. gingivalis in the presence of different inhibiting agents were calculated by […] where Nt and N0 are cells population at time t and time zero, respectively.

[1] = tested on: P. gingivalis ATCC 33277 biofilm; experiment: Biofilm formation in static 96 well model, crystal violet stain; type: cell-based, Porphyromonas gingivalis
Procedure: P. gingivalis biofilm formation over 48 h in a static 96 well model was determined as described previously. Briefly P. gingivalis ATCC 33277 cells were resuspended to a final cell density of 2.5×10^7 before mixing with the test substances followed by transferring into 96 well flat bottom plates and incubated anaerobically at 37° C. Assessment of the biofilm mass was carried out at 24 h and 48 h by washing the cells twice with 250 μL of ultra pure water to remove loosely adhered cells followed by drying at 37° C. for 3 h. The dried biofilm was then stained in a solution of 0.1% crystal violet for 15 min and washed 2 times with 250 μL ultra pure water. The crystal violet stain was then dissolved from the biofilm using a solution of 80% ethanol and 20% acetone for 2 min through repeated pipetting before transferring to a new 96 well plate for measurement of the optical density at 620 nm.

[2] = tested on: P. gingivalis (ATCC 33277) biofilm; experiment: Viability of cells dispersed by Oxantel treatment, static 24 well biofilm assay, colony forming units; type: cell-based, Porphyromonas gingivalis; details: especially for the 12.5 μM Oxantel treated biofilm, 30 min
Procedure: To test the viability of cells dispersed by Oxantel treatment, a static biofilm assay was performed as described above but with slight modifications. Briefly P. gingivalis (ATCC 33277) was allowed to form biofilm in 24 well microplates after 18 h incubation. The free floating planktonic cells were first removed and the biofilm washed once with PBS. 1 mL of 125 uM or 12.5 uM of Oxantel or sterile water […] was added to each well and incubated for 30 min. The number of dispersed P. gingivalis cells that are still viable was determined by cultural analysis on horse blood agar plates after serial dilution in BHI.

P. gingivalis ATCC 33277 = experiment: Effect of Oxantel on growth of P. gingivalis ATCC 33277 in liquid culture over 50 h; type: cell-based; details: Porphyromonas gingivalis, ATCC33277; P. gingivalis ATCC 33277, growth over 50 h
[3] = tested on: P. gingivalis ATCC 33277 biofilm; experiment: Flowcell biofilm culture and CLSM analysis (COMSTAT); type: cell-based, Porphyromonas gingivalis
Description: The biofilm culture of P. gingivalis ATCC 33277 in flow cells was similar to that previously described with several modifications. A 3-channel flow cell system (Stovall Life Science, USA) was set up in an anaerobic chamber (MK3 Anaerobic workstation; Don Whitley Scientific Ltd.) and was modified with silicon pump tubing (Gilson, France) and stopcocks for inoculation, testing and staining of the bacterial biofilms. All parts were assembled and 0.5% sodium hypochlorite was pumped into the system and left overnight to sterilise the system. Sterile water (200 mL) was then used to flush the system before growth medium addition. The system was inoculated with 1 mL of an exponentially growing P. gingivalis diluted to 0.1 OD600. The system was incubated for 1 h prior to constant flow (0.2 mL/min) of 5× diluted BHI (Oxoid) supplemented with 0.1 g/L cysteine, 1 mg/L heamin and 1 mg/L vitamin K. […] The flow of medium was resumed for another 10 min to wash off any unbound cells due to testing. BacLight stain (Molecular Probes) was then used to stain the biofilm in situ (see below).
Confocal laser scanning microscopy (CLSM) of the bacterial biofilms was carried out on a Meta 510 Confocal Microscope with an inverted stage (Zeiss). Horizontal (xy) optodigital sections, each 2 μm thick over the entire thickness of the biofilm (z) were imaged using a 63× objective at 512×512 pixel (0.28 μm per pixel), with each frame at 143.86 μm (x)×143.86 μm (y). To determine reproducibility across the biofilm 5 images at random positions from each of two biological replicates were obtained at wavelengths of 488 nm and 568 nm for each channel. All images obtained were analysed using COMSTAT software. Microcolonies were defined as cluster of cells with >500 pixel counts.

[4] = Solubility limit seen in the growth assay; type: physicochemical; details: growth assay medium (P. gingivalis W50 liquid culture), 37 °C, kinetic from dmso stock, read-out: insolubility (concentration above which insoluble)
Procedure: as §1

[5] = Porphyromonas gingivalis, P. gingivalis W50, growth over 50 h, read-out: MIC
[6] = 12.5 μM Oxantel vs Control, Biological Replicate 1
[7] = 12.5 μM Oxantel, Biological Replicate 1
[8] = 12.5 μM Oxantel, Biological Replicate 2, first channel
[9] = 12.6 μM Oxantel (so in the source), Biological Replicate 2, second channel
[10] = 125 μM Oxantel vs Control, Biological Replicate 1
[11] = 125 μM Oxantel, Biological Replicate 1
[12] = Biological Replicate 2, based on average of both replicates over the control sample
[13] = mature biofilm treated with Oxantel (125 μM or 12.5 μM, 30 min) vs control, P<0.01

Structure (SMILES): Cc1ccsc1/C=C/C1=NCCCN1C [Morantel]
- MIC (P. gingivalis W50; P. gingivalis W50, growth over 50 h, read-out: MIC): 2800 µM (≈ 617 µg/mL)
- MIC (P. gingivalis W50; Porphyromonas gingivalis, W50, 50 h, P. gingivalis W50, growth over 50 h): ~3000 µM (≈ 661 µg/mL)

- MIC (P. gingivalis W50; [5]): 112 µM (≈ 24.2 µg/mL)
- MIC (P. gingivalis ATCC 33277): 125 µM (≈ 27 µg/mL)
Structure (SMILES): CN1CCCN=C1/C=C/c1cccc(O)c1 [Oxantel]
- concentration that significantly reduced the biofilm mass at 24 h ([1]; ATCC 33277, 24 h biofilm, subMIC): ≥ 0.1 µM
- concentration necessary for an inhibitory effect on the biofilm mass at 48 h ([1]; ATCC 33277, 48 h biofilm): ≥ 3.9 µM
- concentration with positive inhibition of growth (P. gingivalis W50; P. gingivalis W50, from the growth curves): more than 15 μM
- viability of cells released from the biofilm [2]: remained viable
- Total biomass ([3]; 12.5 μM Oxantel added to 16 h biofilm, Biological Replicate 1, COMSTAT, 3-channel flow cell): 1.26^a μm^3/μm^2
- Average microcolony area % reduction [3, 6]: 37.2%
- Average thickness % reduction [3, 6]: 39.7%
- Total biomass % reduction [3, 6]: 30.1%
- Ave microcolonies (by pixel, minimum 500) [3, 7]: 17.4
- Average microcolony area [3, 7]: 147.65^a μm^2
- Average thickness [3, 7]: 0.70^a μm
- Surface to biovolume ratio [3, 7]: 2.04^a μm^2/μm^3
- Ave microcolonies (by pixel, minimum 500) [3, 8]: 18.4
- Average microcolony area [3, 8]: 119.571^a μm^2
- Average thickness [3, 8]: 0.911^a μm
- Surface to biovolume ratio [3, 8]: 2.331^a μm^2/μm^3
- Total biomass [3, 8]: 1.451^a μm^3/μm^2
- Ave microcolonies (by pixel, minimum 500) [3, 9]: 19.2
- Average microcolony area [3, 9]: 104.881^a μm^2
- Average thickness [3, 9]: 0.891^a μm
- Surface to biovolume ratio [3, 9]: 2.541^a μm^2/μm^3
- Total biomass [3, 9]: 1.621^a μm^3/μm^2
- Total biomass ([3]; 125 μM Oxantel added to 16 h biofilm, Biological Replicate 1): 1.00^a μm^3/μm^2
- Average microcolony area % reduction [3, 10]: 50.94%
- Average thickness % reduction [3, 10]: 63.2%
- Total biomass % reduction [3, 10]: 44.4%
- Ave microcolonies (by pixel, minimum 500) [3, 11]: 20.8
- Average microcolony area [3, 11]: 115.42^a μm^2
- Average thickness [3, 11]: 0.43^a μm
- Surface to biovolume ratio [3, 11]: 2.27^b μm^2/μm^3
- Average microcolony area % reduction [3, 12]: 37.9%
- Average thickness % reduction [3, 12]: 49.9%
- Total biomass % reduction [3, 12]: 42.8%
- number of microcolonies ([3]; Oxantel treated vs control samples): no significant difference
- biofilm depth [3, 13]: significant reduction
- size of microcolonies [3, 13]: significant reduction

- MIC (P. gingivalis W50; [5]): > 3000 µM
- solubility [4]: > 3000 µM
Structure (SMILES): c1ccc2[nH]c(-c3cscn3)nc2c1 [Thiabendazole]
- concentration required for slight inhibitory effects on the growth (P. gingivalis W50; P. gingivalis W50, growth over 50 h): more than 1 mM
